Values of other authors, collected in patent publication US4463171A, “Derivatives of macrolide antibiotics” (Sanraku-Ocean Co., Ltd., priority 1982, dated 1984).

Experiments:
[1] = cited from earlier work
[2] = cited from earlier work; remark: listed apart in the source

In the case of CC[C@H]1OC(=O)C[C@@H](O)[C@H](C)[C@@H](O[C@@H]2O[C@H](C)[C@@H](O[C@H]3C[C@@](C)(O)[C@@H](O)[C@H](C)O3)[C@H](N(C)C)[C@H]2O)[C@@H](CC=O)C[C@@H](C)C(=O)/C=C/C(C)=C/[C@@H]1CO[C@@H]1O[C@H](C)[C@@H](O)[C@@H](OC)[C@H]1OC [tylosin], the “antibacterial activity in vitro” value [1] is listed as “high antibacterial activity in vitro” and the “absorbability and excretability in vivo” value [2] is listed as “low”.
